Measured values reported in PubChem BioAssay AID651927 (Vanderbilt Specialized Chemistry Center, 2012).

Biological target: Muscarinic acetylcholine receptor M5 (Homo sapiens) (UniProt P08912)
Assay: human M5 positive allosteric modulators, CHO cells (AID 651927)
Conditions: CHO-K1 hM5, Fluo-4 calcium flux, ACh EC20 potentiation

Sequence of Muscarinic acetylcholine receptor M5 (Homo sapiens) (P08912 whole entry, looked up): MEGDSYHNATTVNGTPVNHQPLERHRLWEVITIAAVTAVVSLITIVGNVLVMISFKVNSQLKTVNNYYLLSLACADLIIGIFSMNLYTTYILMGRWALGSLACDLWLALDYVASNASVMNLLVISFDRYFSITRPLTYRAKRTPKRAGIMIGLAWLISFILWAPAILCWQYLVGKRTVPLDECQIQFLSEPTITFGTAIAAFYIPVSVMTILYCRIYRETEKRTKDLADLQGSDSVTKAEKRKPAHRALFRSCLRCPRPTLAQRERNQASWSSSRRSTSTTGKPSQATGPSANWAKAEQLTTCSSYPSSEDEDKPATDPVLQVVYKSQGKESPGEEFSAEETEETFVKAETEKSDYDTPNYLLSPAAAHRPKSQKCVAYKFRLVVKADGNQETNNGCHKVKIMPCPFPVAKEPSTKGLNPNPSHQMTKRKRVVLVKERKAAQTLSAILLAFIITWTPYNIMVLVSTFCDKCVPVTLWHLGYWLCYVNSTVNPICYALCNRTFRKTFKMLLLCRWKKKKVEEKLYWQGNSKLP

- EC50: 589 nM
SMILES: O=C1C(=O)N(CCOc2ccccc2)c2ccc(OC(F)(F)F)cc21
